The text below walks through data of patent publication US9604982B2, “P2X7 modulators” (Janssen Pharmaceutica NV, priority 2013, dated 2017).

The target in the assay is P2X7 (Homo sapiens (Human), UniProt Q99572). Briefly: P2X7 antagonism in human peripheral blood mononuclear cells (PBMCs), IL-1β release after LPS + Bz-ATP (ELISA). The assay is classed as cell-based. The following applies: 0.5 mM Bz-ATP; for remaining activity at 10 µM: P2X7, Table 2, 10 μM compound, read-out: PBMC 10 μM (% control); for PBMC 10 μM (% control): Table 3 (additional runs), 10 μM compound. How it is done: Human blood was collected using a blood donor program. […] Cells were incubated for an additional 1.5 hours. […] Data are analyzed and graphed on Graphpad Prism 5. […] The IC50 for each compound is then uploaded into 3DX.
P2X7, sequence (Q99572 whole entry): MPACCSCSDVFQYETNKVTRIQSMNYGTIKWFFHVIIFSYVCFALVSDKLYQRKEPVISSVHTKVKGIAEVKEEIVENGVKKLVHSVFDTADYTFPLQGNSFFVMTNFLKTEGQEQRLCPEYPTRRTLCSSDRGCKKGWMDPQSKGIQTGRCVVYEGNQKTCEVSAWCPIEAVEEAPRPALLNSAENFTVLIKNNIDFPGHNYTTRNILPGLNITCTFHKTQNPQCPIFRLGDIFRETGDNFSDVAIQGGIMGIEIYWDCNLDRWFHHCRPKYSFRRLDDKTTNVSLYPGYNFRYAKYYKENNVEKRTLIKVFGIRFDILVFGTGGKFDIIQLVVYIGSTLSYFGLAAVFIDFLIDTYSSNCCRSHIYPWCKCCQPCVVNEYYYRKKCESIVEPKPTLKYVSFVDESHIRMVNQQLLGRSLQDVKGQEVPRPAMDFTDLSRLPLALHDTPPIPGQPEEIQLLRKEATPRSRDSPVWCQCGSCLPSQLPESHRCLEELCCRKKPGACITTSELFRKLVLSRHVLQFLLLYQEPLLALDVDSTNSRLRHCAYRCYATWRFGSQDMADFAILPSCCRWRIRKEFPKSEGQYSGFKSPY

On to `Cc1nc2c(c(-c3ccn[nH]3)n1)C[C@@H](C)N(C(=O)c1cccc(C(F)(F)F)c1Cl)C2` (single isomer, unassigned) [Example 58, (6R*)-7-{[2-Chloro-3-(trifluoromethyl)phenyl]carbonyl}-2,6-dimethyl-4-(1H-pyrazol-5-yl)-5,6,7,8-tetrahydropyrido[3,4-d]pyrimidine], for which the remaining activity at 10 µM was 5% and the “PBMC 10 μM (% control)” value was 5.0 % control. As to `Cc1nc2c(c(-c3ccn[nH]3)n1)C[C@H](C)N(C(=O)c1cccc(C(F)(F)F)c1Cl)C2` (single isomer, unassigned) [Example 59, (6S*)-7-{[2-Chloro-3-(trifluoromethyl)phenyl]carbonyl}-2,6-dimethyl-4-(1H-pyrazol-5-yl)-5,6,7,8-tetrahydropyrido[3,4-d]pyrimidine], the remaining activity at 10 µM turned out to be 2.8% and the “PBMC 10 μM (% control)” value is on record as 2.8 % control. For `Cc1nc2c(c(-c3ccn[nH]3)n1)C[C@H](C)N(C(=O)c1ccc(F)c(C(F)(F)F)c1Cl)C2` (single isomer, unassigned) [Example 65, (S*)-(2-chloro-4-fluoro-3-(trifluoromethyl)phenyl)(2,6-dimethyl-4-(1H-pyrazol-5-yl)-5,6-dihydropyrido[3,4-d]pyrimidin-7(8H)-yl)methanone], the remaining activity at 10 µM was 3.9% and the “PBMC 10 μM (% control)” value worked out at 3.9 % control. The like results for `Cc1nc2c(c(-c3ccn[nH]3)n1)C[C@@H](C)N(C(=O)c1ccc(F)c(C(F)(F)F)c1Cl)C2` (single isomer, unassigned) [Example 66, (R*)-(2-chloro-4-fluoro-3-(trifluoromethyl)phenyl)(2,6-dimethyl-4-(1H-pyrazol-5-yl)-5,6-dihydropyrido[3,4-d]pyrimidin-7(8H)-yl)methanone] were, in that order, -6.1% and −6.1 % control. For the compound `Cc1nc2c(c(-c3ccn[nH]3)n1)C[C@@H](C)N(C(=O)c1cccc(Cl)c1Cl)C2` (single isomer, unassigned) [Example 68, (R*)-(2,3-dichlorophenyl)(2,6-dimethyl-4-(1H-pyrazol-5-yl)-5,6-dihydropyrido[3,4-d]pyrimidin-7(8H)-yl)methanone], the remaining activity at 10 µM is -0.5% and the “PBMC 10 μM (% control)” value is −0.5 % control. The corresponding values for `Cc1nc2c(c(-c3ccn[nH]3)n1)C[C@H](C)N(C(=O)c1cccc(Cl)c1Cl)C2` (single isomer, unassigned) [Example 69, (S*)-(2,3-dichlorophenyl)(2,6-dimethyl-4-(1H-pyrazol-5-yl)-5,6-dihydropyrido[3,4-d]pyrimidin-7(8H)-yl)methanone] are -6.2% and −6.2 % control. For the compound `Cc1nc2c(c(-c3ccn[nH]3)n1)C[C@@H](C)N(C(=O)c1cccc(C(F)(F)F)c1F)C2` (single isomer, unassigned) [Example 75, (R*)-(2,6-dimethyl-4-(1H-pyrazol-5-yl)-5,6-dihydropyrido[3,4-d]pyrimidin-7(8H)-yl)(2-fluoro-3-(trifluoromethyl)phenyl)methanone], the remaining activity at 10 µM was 2.4% and the “PBMC 10 μM (% control)” value is listed as 2.4 % control. Turning to `Cc1nc2c(c(-c3ccn[nH]3)n1)C[C@H](C)N(C(=O)c1cccc(C(F)(F)F)c1F)C2` (single isomer, unassigned) [Example 76, (S*)-(2,6-dimethyl-4-(1H-pyrazol-5-yl)-5,6-dihydropyrido[3,4-d]pyrimidin-7(8H)-yl)(2-fluoro-3-(trifluoromethyl)phenyl)methanone], the remaining activity at 10 µM worked out at 14.3%. Regarding `Cc1nc2c(c(-c3ccn[nH]3)n1)C[C@@H](C)N(C(=O)c1cccc(C(F)(F)F)c1C)C2` (single isomer, unassigned) [Example 78, (R*)-(2,6-dimethyl-4-(1H-pyrazol-5-yl)-5,6-dihydropyrido[3,4-d]pyrimidin-7(8H)-yl)(2-methyl-3-(trifluoromethyl)phenyl)methanone], the remaining activity at 10 µM came to 1.4% and the “PBMC 10 μM (% control)” value amounted to 1.4 % control.

Take `Cc1nc2c(c(-c3ccn[nH]3)n1)C[C@H](C)N(C(=O)c1cccc(C(F)(F)F)c1C)C2` (single isomer, unassigned) [Example 79, (S*)-(2,6-dimethyl-4-(1H-pyrazol-5-yl)-5,6-dihydropyrido[3,4-d]pyrimidin-7(8H)-yl)(2-methyl-3-(trifluoromethyl)phenyl)methanone]: the remaining activity at 10 µM was determined as 2.6% and the “PBMC 10 μM (% control)” value was 2.6 % control. For `Cc1nc2c(c(-c3ccn[nH]3)n1)C[C@@H](C)N(C(=O)c1ccc(F)c(Cl)c1Cl)C2` (single isomer, unassigned) [Example 81, (R*)-(2,3-dichloro-4-fluorophenyl)(2,6-dimethyl-4-(1H-pyrazol-5-yl)-5,6-dihydropyrido[3,4-d]pyrimidin-7(8H)-yl)methanone], the remaining activity at 10 µM amounted to 21% and the “PBMC 10 μM (% control)” value is given as 21.0 % control. The like results for `Cc1nc2c(c(-c3ccn[nH]3)n1)C[C@H](C)N(C(=O)c1ccc(F)c(Cl)c1Cl)C2` (single isomer, unassigned) [Example 82, (S*)-(2,3-dichloro-4-fluorophenyl)(2,6-dimethyl-4-(1H-pyrazol-5-yl)-5,6-dihydropyrido[3,4-d]pyrimidin-7(8H)-yl)methanone] were, in that order, -1% and −1.0 % control.

With `Cc1nc2c(c(-c3ccn[nH]3)n1)C[C@@H](C)N(C(=O)c1ccc(Cl)cc1Cl)C2` (single isomer, unassigned) [Example 84, (R*)-(2,4-dichlorophenyl)(2,6-dimethyl-4-(1H-pyrazol-5-yl)-5,6-dihydropyrido[3,4-d]pyrimidin-7(8H)-yl)methanone], the remaining activity at 10 µM was determined as 7.5% and the “PBMC 10 μM (% control)” value was 7.5 % control. On to `Cc1nc2c(c(-c3ccn[nH]3)n1)C[C@H](C)N(C(=O)c1ccc(Cl)cc1Cl)C2` (single isomer, unassigned) [Example 85, (S*)-(2,4-dichlorophenyl)(2,6-dimethyl-4-(1H-pyrazol-5-yl)-5,6-dihydropyrido[3,4-d]pyrimidin-7(8H)-yl)methanone], for which the remaining activity at 10 µM was -0.8% and the “PBMC 10 μM (% control)” value is on record as −0.8 % control. `Cc1nc2c(c(-c3ccn[nH]3)n1)C[C@@H](C)N(C(=O)c1ccc(Cl)cc1F)C2` (single isomer, unassigned) [Example 88, (R*)-(4-chloro-2-fluorophenyl)(2,6-dimethyl-4-(1H-pyrazol-5-yl)-5,6-dihydropyrido[3,4-d]pyrimidin-7(8H)-yl)methanone]: the remaining activity at 10 µM turned out to be 49.4%. `Cc1nc2c(c(-c3ccn[nH]3)n1)C[C@@H](C)N(C(=O)c1ccc(F)cc1Cl)C2` (single isomer, unassigned) [Example 91, (R*)-(2-chloro-4-fluorophenyl)(2,6-dimethyl-4-(1H-pyrazol-5-yl)-5,6-dihydropyrido[3,4-d]pyrimidin-7(8H)-yl)methanone]: the remaining activity at 10 µM is -8.8% and the “PBMC 10 μM (% control)” value is −8.8 % control. The like results for `Cc1nc2c(c(-c3ccn[nH]3)n1)C[C@H](C)N(C(=O)c1ccc(F)cc1Cl)C2` (single isomer, unassigned) [Example 92, (S*)-(2-chloro-4-fluorophenyl)(2,6-dimethyl-4-(1H-pyrazol-5-yl)-5,6-dihydropyrido[3,4-d]pyrimidin-7(8H)-yl)methanone] were, in that order, 9.4% and 9.4 % control. `Cc1nc2c(c(-c3ccn[nH]3)n1)C[C@@H](C)N(C(=O)c1ccc(F)cc1F)C2` (single isomer, unassigned) [Example 94, (R*)-(2,4-difluorophenyl)(2,6-dimethyl-4-(1H-pyrazol-5-yl)-5,6-dihydropyrido[3,4-d]pyrimidin-7(8H)-yl)methanone]: the remaining activity at 10 µM was found to be 71.8%.

On to `Cc1nc2c(c(-c3ccn[nH]3)n1)C[C@H](C)N(C(=O)c1ccc(F)cc1F)C2` (single isomer, unassigned) [Example 95, (S*)-(2,4-difluorophenyl)(2,6-dimethyl-4-(1H-pyrazol-5-yl)-5,6-dihydropyrido[3,4-d]pyrimidin-7(8H)-yl)methanone], for which the remaining activity at 10 µM is -19.2%.

As to `CCc1nc2c(c(-c3ccn[nH]3)n1)C[C@@H](C)N(C(=O)c1cccc(C(F)(F)F)c1Cl)C2` (single isomer, unassigned) [Example 99, (R*)-(2-chloro-3-(trifluoromethyl)phenyl)(2-ethyl-6-methyl-4-(1H-pyrazol-5-yl)-5,6-dihydropyrido[3,4-d]pyrimidin-7(8H)-yl)methanone], the remaining activity at 10 µM turned out to be 16.4%. Turning to `CCc1nc2c(c(-c3ccn[nH]3)n1)C[C@H](C)N(C(=O)c1cccc(C(F)(F)F)c1Cl)C2` (single isomer, unassigned) [Example 100, (S*)-(2-chloro-3-(trifluoromethyl)phenyl)(2-ethyl-6-methyl-4-(1H-pyrazol-5-yl)-5,6-dihydropyrido[3,4-d]pyrimidin-7(8H)-yl)methanone], the remaining activity at 10 µM came to 4% and the “PBMC 10 μM (% control)” value came out at 4.0 % control. With `CC(C)c1nc2c(c(-c3ccn[nH]3)n1)C[C@@H](C)N(C(=O)c1cccc(C(F)(F)F)c1Cl)C2` (single isomer, unassigned) [Example 102, (R*)-(2-chloro-3-(trifluoromethyl)phenyl)(2-isopropyl-6-methyl-4-(1H-pyrazol-5-yl)-5,6-dihydropyrido[3,4-d]pyrimidin-7(8H)-yl)methanone], the remaining activity at 10 µM worked out at 11.7%.

In the case of `CC(C)c1nc2c(c(-c3ccn[nH]3)n1)C[C@H](C)N(C(=O)c1cccc(C(F)(F)F)c1Cl)C2` (single isomer, unassigned) [Example 103, (S*)-(2-chloro-3-(trifluoromethyl)phenyl)(2-isopropyl-6-methyl-4-(1H-pyrazol-5-yl)-5,6-dihydropyrido[3,4-d]pyrimidin-7(8H)-yl)methanone], the remaining activity at 10 µM was found to be 6.3% and the “PBMC 10 μM (% control)” value turned out to be 6.3 % control.
